The series can be described thus: pKa of the pesticidal active ingredient. The format is physicochemical. The source says:
When the acidic pesticidal active ingredient having the above specified pKa is used, the pKa of the ingredient is, for example, measured by a method described in “Jikken Kagaku Kouza”, Vol. 5 (thermal measurement and equilibrium), p. 469-p. 474, Maruzen Co., Ltd. published Jan. 20, 1958 and elsewhere.

What is called pKa is the pH at which an ionisable group is half protonated. `COCc1cccc(C(O)c2nc(OC)cc(OC)n2)c1NS(=O)(=O)C(F)F` (centres unmarked) [compound A, 2-[(4,6-dimethoxypyrimidin-2-yl)hydroxymethyl]-6-methoxymethyl-N-difluoromethanesulfonyl anilide] registered a pKa of 5.75.
The value for `CCc1cccc(C(O)c2nc(OC)cc(OC)n2)c1NS(=O)(=O)C(F)F` (centres unmarked) [compound B, 2-[(4,6-dimethoxypyrimidin-2-yl)hydroxymethyl]-6-ethyl-N-difluoromethanesulfonyl anilide] was 6.17.

Source of the values: patent publication US7829499B2, “Granular pesticide preparation” (Kumiai Chemical Industry Co., Ltd., priority 2003, dated 2010).
